Experimental data published in patent US12281122B1, “PI3K inhibitors” (Cogent Biosciences, Inc., priority 2023, dated 2025).

Columns and labels:
[1] = tested on: T47D (PI3Kα-H1047R) cell line; experiment: HTRF phospho-AKT(S473) cell assay in T47D cells; format: cell-based, human
Method in brief: (§1)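 T47D (PI3Kα-H1047R; RPMI, 10% FBS, insulin) and SKBR3 (wild-type PI3Kα; McCoy's 5A, 10% FBS) cells treated 2 h at 37 °C with 12-point 1:3 dilutions, top 5 μM and 10 μM respectively, ≤0.5% DMSO. SKBR3 stimulated with 70 ng/ml PDGF-BB for the last 15 min; lysate pAKT(S473) by HTRF, IC50 from curves.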

[2] = tested on: SKBR3 (PI3Kα-Wild Type) cell line; experiment: HTRF phospho-AKT(S473) cell assay in SKBR3 cells; format: cell-based, human
Method in brief: as §1

[3] = Homo sapiens; HTRF phospho-AKT(S473), T47D (PI3Kα-H1047R) cells, 2 hours compound incubation
[4] = Homo sapiens, SK-BR-3; HTRF phospho-AKT(S473), SKBR3 (PI3Kα-Wild Type) cells, 2 hours compound incubation, PDGF-BB stimulated
[5] = Homo sapiens; T47D (PI3Kα-H1047R) cells, HTRF phospho-AKT(S473), 2 hours compound incubation
[6] = Homo sapiens, SK-BR-3; SKBR3 (PI3Kα-Wild Type) cells, HTRF phospho-AKT(S473), 2 hours compound incubation, PDGF-BB stimulated

Structure (SMILES)	IC50 [1, 3] [nM]	IC50 [2, 4] [nM]	IC50 [1, 5] [nM]	IC50 [2, 6] [nM]
COc1nc(C)cc(N2CCN(c3nc4c([C@@H](C)Nc5ccc(Cl)nc5C(=O)NS(C)(=O)=O)cc(C)cc4c(=O)n3C)CC2)n1 [Compound 729, (R)-6-chloro-3-((1-(2-(4-(2-methoxy-6-methylpyrimidin-4-yl)piperazin-1-yl)-3,6-dimethyl-4-oxo-3,4-dihydroquinazolin-8-yl)ethyl)amino)-N-(methylsulfonyl) picolinamide]	250 to 500	1000 to 5000	–	–
Cc1cc([C@@H](C)Nc2ccc(Cl)nc2C(=O)NS(C)(=O)=O)c2nc(N3Cc4cn(CC(C)(C)O)nc4C3)n(C)c(=O)c2c1 [Compound 216, (R)-6-chloro-3-((1-(2-(2-(2-hydroxy-2-methylpropyl)-2,6-dihydropyrrolo[3,4-c]pyrazol-5(4H)-yl)-3,6-dimethyl-4-oxo-3,4-dihydroquinazolin-8-yl)ethyl)amino)-N-(methylsulfonyl) picolinamide]	–	–	< 250	1000 to 5000
COc1ccc(N2C[C@H]3C[C@@H]2CN3c2nc3c([C@@H](C)Nc4ccc(Cl)nc4C(=O)NS(C)(=O)=O)cc(C)cc3c(=O)n2C)cn1 [Compound 638, 6-chloro-3-(((R)-1-(2-((1R,4R)-5-(6-methoxypyridin-3-yl)-2,5-diazabicyclo [2.2.1]heptan-2-yl)-3,6-dimethyl-4-oxo-3,4-dihydroquinazolin-8-yl)ethyl)amino)-N-(methylsulfonyl) picolinamide]	250 to 500	≥ 5000	–	–
Cc1cc([C@@H](C)Nc2ccc(Cl)nc2C(=O)NS(C)(=O)=O)c2nc(N3Cc4cn(CCO)nc4C3)n(C)c(=O)c2c1 [Compound 149, (R)-6-chloro-3-((1-(2-(2-(2-hydroxyethyl)-2,6-dihydropyrrolo[3,4-c]pyrazol-5(4H)-yl)-3,6-dimethyl-4-oxo-3,4-dihydroquinazolin-8-yl)ethyl)amino)-N-(methylsulfonyl) picolinamide]	–	–	250 to 500	1000 to 5000
Cc1cc([C@@H](C)Nc2ccc(Cl)nc2C(=O)NS(C)(=O)=O)c2nc(N3CCC[C@@H](Oc4cccnc4)C3)n(C)c(=O)c2c1 [Compound 343, 6-chloro-3-(((R)-1-(3,6-dimethyl-4-oxo-2-((R)-3-(pyridin-3-yloxy)piperidin-1-yl)-3,4-dihydroquinazolin-8-yl)ethyl)amino)-N-(methylsulfonyl) picolinamide]	–	–	250 to 500	≥ 5000
COc1cc(N2CCN(c3nc4c([C@@H](C)Nc5ccc(Cl)nc5C(=O)NS(C)(=O)=O)cc(C)cc4c(=O)n3C)CC2)nc(C)n1 [Compound 718, (R)-6-chloro-3-((1-(2-(4-(6-methoxy-2-methylpyrimidin-4-yl)piperazin-1-yl)-3,6-dimethyl-4-oxo-3,4-dihydroquinazolin-8-yl)ethyl)amino)-N-(methylsulfonyl) picolinamide]	250 to 500	≥ 5000	–	–
Cc1cc([C@@H](C)Nc2ccc(Cl)nc2C(=O)NS(C)(=O)=O)c2nc(N3CCC(c4ncc(C5CC5)cn4)CC3)n(C)c(=O)c2c1 [Compound 509, (R)-6-chloro-3-((1-(2-(4-(5-cyclopropylpyrimidin-2-yl)piperidin-1-yl)-3,6-dimethyl-4-oxo-3,4-dihydroquinazolin-8-yl)ethyl)amino)-N-(methylsulfonyl) picolinamide]	250 to 500	≥ 5000	–	–

The next lines start with the values.

IC50 [1, 3] [nM]	IC50 [2, 4] [nM]	IC50 [1, 5] [nM]	IC50 [2, 6] [nM]	Structure (SMILES)
250 to 500	1000 to 5000	–	–	Cc1cc([C@@H](C)Nc2ccc(Cl)nc2C(=O)NS(C)(=O)=O)c2nc(N3CCN(c4cc(F)cnc4C)CC3)n(C)c(=O)c2c1 [Compound 730, (R)-6-chloro-3-((1-(2-(4-(5-fluoro-2-methylpyridin-3-yl)piperazin-1-yl)-3,6-dimethyl-4-oxo-3,4-dihydroquinazolin-8-yl)ethyl)amino)-N-(methylsulfonyl) picolinamide]
250 to 500	≥ 5000	–	–	Cc1cc([C@@H](C)Nc2ccc(Cl)nc2C(=O)NS(C)(=O)=O)c2nc(N3CCC[C@H](c4cnc(C)cn4)C3)n(C)c(=O)c2c1 (relative stereo) [Compound 585, 6-chloro-3-(((R)-1-(3,6-dimethyl-2-((R*)-3-(5-methylpyrazin-2-yl)piperidin-1-yl)-4-oxo-3,4-dihydroquinazolin-8-yl)ethyl)amino)-N-(methylsulfonyl) picolinamide]
< 250	1000 to 5000	–	–	Cc1cc([C@@H](C)Nc2ccc(Cl)nc2C(=O)NS(C)(=O)=O)c2nc(-c3ccc(-c4cnn(C)c4)c(F)c3)n(C)c(=O)c2c1 [Compound 794, (R)-6-chloro-3-((1-(2-(3-fluoro-4-(1-methyl-1H-pyrazol-4-yl)phenyl)-3,6-dimethyl-4-oxo-3,4-dihydroquinazolin-8-yl)ethyl)amino)-N-(methylsulfonyl) picolinamide]
250 to 500	≥ 5000	–	–	Cc1cc([C@@H](C)Nc2ccc(Cl)nc2C(=O)NS(C)(=O)=O)c2nc(N3CCC[C@@H](c4nccc(C)n4)C3)n(C)c(=O)c2c1 (mixture of isomers) [Compound 633, 6-chloro-3-(((R)-1-(3,6-dimethyl-2-((RS)-3-(4-methylpyrimidin-2-yl)piperidin-1-yl)-4-oxo-3,4-dihydroquinazolin-8-yl)ethyl)amino)-N-(methylsulfonyl) picolinamide]
< 250	1000 to 5000	–	–	CC(=O)N1CCN(c2ccc(-c3nc4c([C@@H](C)Nc5ccc(Cl)nc5C(=O)NS(C)(=O)=O)cc(C)cc4c(=O)n3C)cc2F)CC1 [Compound 778, (R)-3-((1-(2-(4-(4-acetylpiperazin-1-yl)-3-fluorophenyl)-3,6-dimethyl-4-oxo-3,4-dihydroquinazolin-8-yl)ethyl)amino)-6-chloro-N-(methylsulfonyl) picolinamide]
500 to 1000	≥ 5000	–	–	Cc1cc([C@@H](C)Nc2ccc(Cl)nc2C(=O)NS(C)(=O)=O)c2nc(N3C[C@H]4C[C@@H]3CN4c3cnc(C)c(F)c3)n(C)c(=O)c2c1 [Compound 664, 6-chloro-3-(((R)-1-(2-((1R,4R)-5-(5-fluoro-6-methylpyridin-3-yl)-2,5-diazabicyclo [2.2.1]heptan-2-yl)-3,6-dimethyl-4-oxo-3,4-dihydroquinazolin-8-yl)ethyl)amino)-N-(methylsulfonyl) picolinamide]
< 250	1000 to 5000	–	–	Cc1cc([C@@H](C)Nc2ccc(Cl)nc2C(=O)NS(C)(=O)=O)c2nc(N3CCC(n4ncc(F)c4C)CC3)n(C)c(=O)c2c1 [Compound 712, (R)-6-chloro-3-((1-(2-(4-(4-fluoro-5-methyl-1H-pyrazol-1-yl)piperidin-1-yl)-3,6-dimethyl-4-oxo-3,4-dihydroquinazolin-8-yl)ethyl)amino)-N-(methylsulfonyl) picolinamide]
–	–	< 250	1000 to 5000	Cc1cc([C@@H](C)Nc2ccc(Cl)nc2C(=O)NS(C)(=O)=O)c2nc(N3CCC(c4ccn(C)n4)CC3)n(C)c(=O)c2c1 [Compound 178, (R)-6-chloro-3-((1-(3,6-dimethyl-2-(4-(1-methyl-1H-pyrazol-3-yl)piperidin-1-yl)-4-oxo-3,4-dihydroquinazolin-8-yl)ethyl)amino)-N-(methylsulfonyl) picolinamide]
–	–	< 250	1000 to 5000	Cc1cc([C@@H](C)Nc2ccc(Cl)nc2C(=O)NS(C)(=O)=O)c2nc(N3CCN(c4ccc(N)nc4)CC3)n(C)c(=O)c2c1 [Compound 174, (R)-3-((1-(2-(4-(6-aminopyridin-3-yl)piperazin-1-yl)-3,6-dimethyl-4-oxo-3,4-dihydroquinazolin-8-yl)ethyl)amino)-6-chloro-N-(methylsulfonyl) picolinamide]
